Measured values: patent US6846843B2, “β-thioamino acids” (Gruenenthal GmbH, priority 2000, dated 2005)
Where two headings read alike, the source gives them in different places.

Tests used:
[1] = tested on: phenylquinone-induced writhing reactions; assay: Phenylquinone-induced writhing test in mice; type: in vivo; conditions: iv, read-out: Writhing Mouse i.v. ED50
Method: The antinociceptive effectiveness of the compounds according to the invention was investigated in mice using the phenylquinone-induced writhing test as modified by I. C. Hendershot and J. Forsaith, J. Pharmacol. Exp. Ther. 125, 237-240 (1959)). Male NMRI mice weighing 25-30 g were used for this purpose. Groups of 10 animals per substance dose were given intraperitoneally 10 minutes after intravenous administration of a compound according to the invention, 0.3 ml/mouse of a 0.02% aqueous solution of phenylquinone (phenylbenzoquinone, from Sigma, Deisenhofen; solution prepared by addition of 5% of ethanol and storage in a water bath at 45° C.). The animals were placed individually in observation cages. The number of pain-induced stretching movements (so-called writhing reactions=contortion of the body accompanied by stretching of the rear extremities) 5-20 minutes after administration of the phenylquinone were counted using a push-button counter. Animals that had received physiological saline solution i.v. and phenylquinone […]. served as controls.
All substances were tested in the standard dose of 10 mg/kg.

[2] = tested on: formalin-induced nociception; assay: Formalin test on mice (second phase); type: in vivo; conditions: read-out: Mouse Formalin Test ED50
Method: The investigations to determine the antinociceptive action of the compounds according to the invention were carried out by the formalin test on male albino mice (NMRI, 25-35 g, Iffa Credo, Belgium).
In the formalin test the first (early) phase (0-15 minutes after the formalin injection) and the second (late) phase (15-60 minutes after the formalin injection) differ (D. Dubuisson et al., Pain, Vol. 4, pp. 161-174 (1977)). The early phase, being a direct reaction to the formalin injection, constitutes a model for acute pain, whereas the late phase is regarded as a model for persistent (chronic or inflammatory) pain (T. J. Coderre et al., Pain, Vol. 52, pp. 259-285 (1993)).
The compounds according to the invention were investigated in the second phase of the formalin test in order to obtain information on the effects of substances in chronic/inflammatory pain.
By means of a single subcutaneous formalin injection (20 μl, 1% aqueous solution) into the dorsal side of the right-hand rear paw, a nociceptive reaction was induced in unconstrained experimental animals, manifested in a noticeable licking and biting of the affected paw. The nociceptive behavior during the investigation period in the second (late) phase of the formalin test was continuously monitored by observing the animals. The pain reaction was quantified by totalling the time in seconds during which the animals continued to lick and bite the affected paw during the investigation period. After injecting substances that have an antinociceptive effect in the formalin test, the aforedescribed behavior pattern of the animals is reduced or possibly even eliminated. Corresponding to the substance tests, in which the animals had been injected with the test substance before formalin, the control animals were injected with a vehicle, i.e. solvent (e.g. 0.9% NaCl solution) before the formalin injection. The behavior of the animals after administration of the substance (n=10 per substance dose) was compared with a control group (n=10).
Based on the quantification of the pain reaction, the effect of the substance in the formalin test was determined as the change in the control in percentage terms. The ED50 calculations were carried out by means of regression analysis. The application time before the formalin injection (intraperitoneally: 15 minutes, intravenously: 5 minutes) was chosen depending on the type of application of the compounds according to the invention.

[3] = tested on: cold-induced allodynia; assay: Bennett model, neuropathic pain in rats (cold-induced allodynia); type: in vivo; conditions: rat; for AUD: over 1 hour, *** p≦0.001
Method: The effectiveness in neuropathic pain was investigated using the Bennett model (Chronic Constriction Injury: Bennett and Xie, 1988, Pain 33: 87-107).
The right sciatic nerve of Sprague-Dawley rats weighing 140-160 g anaesthetised with nembutal was loosely ligatured in four places. The animals develop an hypersensitivity in the paw inervated by the damaged nerve, which after a one-week healing phase is quantified over about four weeks by means of a 4° C. cold metal plate (cold-induced allodynia). The animals are observed for a period of 2 minutes on this plate and the number of contractive reactions of the damaged paw is measured. The effect of the substance is determined at four times over a period of 1 hour (15, 30, 45 and 60 minutes after application) with reference to the baseline value before application of the substance and the resulting area under the curve (AUD) as well as the inhibition of the cold-induced allodynia at the individual measuring points is expressed as a percentage inhibition with respect to the vehicle control (AUD) and to the starting value (individual measurement points). The group size is n=10, and the significance of an anti-allodynic action is determined on the basis of the AUD values over a paired Test (* 0.05≧p>0.01; ** 0.01≧p>0.001; *** p≦0.001; Armitage and Berry, 1987, Stat. Methods in Medical Research, London: Blackwell Scientific Publications).

[4] = biological target: gabapentin binding site; assay: Gabapentin binding assay (displacement of gabapentin from its binding site); conditions: displacement of gabapentin; hydrochloride; read-out: Affinity (IC50)
Method: Gabapentin is used in the binding assay in order to determine the binding and affinities of the selected compounds. The affinity of the compounds according to the invention is measured via the displacement of gabapentin from its binding site.

[5] = tested on: mechanical hyperalgesia after paw incision; assay: Mechanical hyperalgesia after paw incision in rats (paw incision model); type: in vivo; conditions: rat, 464 mg/kg i.p.
Method: In this model the wound pain in the tissue surrounding an incision in the plantar side of a rear rat paw is investigated as a model of post-operative pain (Brennan, T. J., Vandermeulen, E. P., Gebhart, G. F., Pain (1996) 493-501). For this purpose the retraction latency after punctiform mechanical stimulation with an electronic von Frey filament is determined. After the paw incision a mechanical hyperalgesia develops, which remains stable over several days.
Male Sprague Dawley rats (bodyweight 200-300 g) are used. Under halothane anaesthesia a 1 cm-long incision is made starting 0.5 cm from the proximal end of the heel, through the skin, fascia and plantaris muscle, and closed with two stitches.
The retraction threshold of the paw expressed in grams after punctiform mechanical stimulation is determined using an electronic von Frey filament (Digital Transducer Indicator Model 1601C, IITC Inc.). For this purpose the retraction threshold per measurement point is measured five times at intervals of 30 seconds and the individual median value is determined, on the basis of which the mean value of the animal cohort is in turn calculated. […]
In order to investigate primary hyperalgesia, the retraction threshold is determined on the ipsilateral paw in the immediate vicinity of the incision as well as in the same position on the contralateral paw. […]

[6] = mouse, i.v., 10 minutes before phenylquinone

Q: What does the source list for `NCC1(CC(=O)O)CCCCC1` [Gabapentin, gabapentin, reference compound]?
A: ED50 ([1]; Mus musculus): 38 mg/kg; ED50 ([2]; Mus musculus): 79 mg/kg; Change Compared to Control (%) ([3]; 100 mg/kg i.p.): 34.5%; AUD ([3]; 100 mg/kg i.p.): 1940.3 ± 139.7***; Change Compared to Control (%) ([3]; 464 mg/kg i.p.): 47.3%; AUD ([3]; 464 mg/kg i.p.): 2577.8 ± 147.4***

Q: Which IC50 [4] does the source give for `CCCCCC(C)(S)C(N)C(=O)O.Cl` (racemic) [Compound 4, rac-2-amino-3-mercapto-3-methyloctanoic acid hydrochloride] here?
A: 0.186 µM

Q: What about the ED50 [1, 6] of the same molecule?
A: 12 mg/kg

Q: And the ED50 ([2]; iv, mouse, i.v., second phase)?
A: 67 mg/kg

Q: And the “Change Compared to Control (%)” value ([3]; 46.4 mg/kg i.p.)?
A: 32.5%

Q: What about the AUD ([3]; 46.4 mg/kg i.p.) of the same molecule?
A: 1893.1 ± 284.6***

Q: And the “Change Compared to Control (%)” value ([3]; 100 mg/kg i.p.)?
A: 66.9%

Q: What about the AUD ([3]; 100 mg/kg i.p.) of the same molecule?
A: 3603.1 ± 228.1***

Q: Which IC50 [4] does the source give for `CCCCCCCC(C)(S)C(N)C(=O)O.Cl` (racemic) [Compound 6, rac-2-amino-3-mercapto-3-methyldecanoic acid hydrochloride] here?
A: 0.199 µM

Q: What about the ED50 [1, 6] of the same molecule?
A: 35 mg/kg

Q: What about the ED50 ([2]; iv, mouse, i.v., second phase) of the same molecule?
A: 66 mg/kg

Q: And the “% MPE (Maximal Possible Effect)” value [5]?
A: 27% MPE (464 mg/kg) i.p.
